Source: PubChem BioAssay AID260 (DTP/NCI, 2004)
Where “and” joins values, the source holds several entries; their conditions need not be identical. Identical values can stand only once. Inconclusive results and toxic doses are left out.

Tested on: CD2F1 mice, intracerebral L1210 leukemia, survival T/C
Assay: NCI In Vivo Anticancer Drug Screen. Data for tumor model L1210 Leukemia (intracerebral) in CD2F1 (CDF1) mice
Conditions: higher = longer survival
Experimental: The antitumor activity of compounds was measured in mice bearing transplantable tumors. Survival or tumor size were measured and the results are expressed as the measurement made in the treated group (T) divided by the measurement made in the vehicle treated control group (C). The tumor model used in this assay is L1210 Leukemia (intracerebral) in CD2F1 (CDF1) mice

[1] = endpoint: median survival time, dose: 8.0 mg/kg/injection, schedule: Q01DX009 (ip), vehicle: saline with Tween-80
[2] = endpoint: median survival time, dose: 16.0 mg/kg/injection, schedule: Q01DX009 (ip), vehicle: saline with Tween-80
[3] = endpoint: median survival time, dose: 32.0 mg/kg/injection, schedule: Q01DX009 (ip), vehicle: saline with Tween-80
[4] = endpoint: median survival time, dose: 64.0 mg/kg/injection, schedule: Q01DX009 (ip), vehicle: saline with Tween-80
[5] = endpoint: median survival time, dose: 128.0 mg/kg/injection, schedule: Q01DX009 (ip), vehicle: saline with Tween-80
[6] = endpoint: median survival time, dose: 256.0 mg/kg/injection, schedule: Q01DX009 (ip), vehicle: saline with Tween-80
[7] = endpoint: median survival time, dose: 32.0 mg/kg/injection, schedule: Q01DX005 (ip), vehicle: saline

Nc1ncn(C2OC(CO)C(O)C2O)c(=O)n1 (configuration not stated)
T/C (endpoint: mean survival time, dose: 0.75 mg/kg/injection, schedule: Q01DX009 (ip), vehicle: saline): 116 % of control
T/C (endpoint: mean survival time, dose: 1.5 mg/kg/injection, schedule: Q01DX009 (ip), vehicle: saline): 116 % of control
T/C (endpoint: mean survival time, dose: 3.0 mg/kg/injection, schedule: Q01DX009 (ip), vehicle: saline): 120 % of control
T/C (endpoint: median survival time, dose: 0.28 mg/kg/injection, schedule: Q03HX024 (ip), vehicle: saline): 100 % of control
T/C (endpoint: median survival time, dose: 0.5 mg/kg/injection, schedule: Q01DX005 (ip), vehicle: water): 103 % of control
T/C (endpoint: median survival time, dose: 0.59 mg/kg/injection, schedule: Q03HX024 (ip), vehicle: saline): 151 % of control
T/C (endpoint: median survival time, dose: 1.0 mg/kg/injection, schedule: Q01DX005 (ip), vehicle: water): 103 % of control
T/C (endpoint: median survival time, dose: 1.17 mg/kg/injection, schedule: Q03HX024 (ip), vehicle: saline): 261 % of control
T/C (endpoint: median survival time, dose: 2.0 mg/kg/injection, schedule: Q01DX005 (ip), vehicle: water): 114 % of control
T/C (endpoint: median survival time, dose: 2.25 mg/kg/injection, schedule: Q03HX024 (ip), vehicle: saline): 170 % of control
T/C (endpoint: median survival time, dose: 2.34 mg/kg/injection, schedule: Q03HX024 (ip), vehicle: saline): 293 % of control
T/C (endpoint: median survival time, dose: 3.12 mg/kg/injection, schedule: Q01DX009 (ip), vehicle: saline): 213 % of control
T/C (endpoint: median survival time, dose: 4.5 mg/kg/injection, schedule: Q03HX024 (ip), vehicle: saline): 113 % of control
T/C (endpoint: median survival time, dose: 4.69 mg/kg/injection, schedule: Q03HX024 (ip), vehicle: saline): 363 % of control
T/C (endpoint: median survival time, dose: 6.0 mg/kg/injection, schedule: Q01DX009 (ip), vehicle: saline): 173 % of control
T/C (endpoint: median survival time, dose: 6.25 mg/kg/injection, schedule: Q01DX009 (ip), vehicle: saline): 214 % of control
T/C (endpoint: median survival time, dose: 8.0 mg/kg/injection, schedule: Q01DX005 (ip), vehicle: water): 98 % of control
T/C (endpoint: median survival time, dose: 9.38 mg/kg/injection, schedule: Q03HX024 (ip), vehicle: saline): 681 % of control
T/C (endpoint: median survival time, dose: 12.0 mg/kg/injection, schedule: Q01DX009 (ip), vehicle: saline): 102 % of control
T/C (endpoint: median survival time, dose: 12.5 mg/kg/injection, schedule: Q01DX009 (ip), vehicle: saline): 250 % of control and 284 % of control and 325 % of control
T/C (endpoint: median survival time, dose: 18.75 mg/kg/injection, schedule: Q03HX024 (ip), vehicle: saline): 681 % of control
T/C (endpoint: median survival time, dose: 25.0 mg/kg/injection, schedule: Q01DX009 (ip), vehicle: saline): 298 % of control and 300 % of control and 348 % of control
T/C (endpoint: median survival time, dose: 50.0 mg/kg/injection, schedule: Q01DX009 (ip), vehicle: saline): 290 % of control and 295 % of control and 334 % of control
T/C (endpoint: median survival time, dose: 75.0 mg/kg/injection, schedule: Q03HX024 (ip), vehicle: saline): 98 % of control
T/C (endpoint: median survival time, dose: 100.0 mg/kg/injection, schedule: Q01DX009 (ip), vehicle: saline): 348 % of control and 378 % of control and 386 % of control
T/C (endpoint: median survival time, dose: 200.0 mg/kg/injection, schedule: Q01DX009 (ip), vehicle: saline): 151 % of control and 209 % of control
T/C (endpoint: median survival time, dose: 400.0 mg/kg/injection, schedule: Q01DX009 (ip), vehicle: saline): 181 % of control

Nc1ccn([C@@H]2C=C(CO)[C@@H](O)[C@H]2O)c(=O)n1
T/C (endpoint: median survival time, dose: 0.44 mg/kg/injection, schedule: Q01DX009 (ip), vehicle: saline): 103 % of control
T/C (endpoint: median survival time, dose: 0.67 mg/kg/injection, schedule: Q01DX009 (ip), vehicle: saline): 114 % of control
T/C (endpoint: median survival time, dose: 2.25 mg/kg/injection, schedule: Q01DX009 (ip), vehicle: saline): 120 % of control
T/C (endpoint: median survival time, dose: 3.76 mg/kg/injection, schedule: Q01DX009 (ip), vehicle: saline): 92 % of control

C#C[C@]1(O)CC[C@H]2[C@@H]3CCc4cc(O)ccc4[C@H]3CC[C@@]21C
T/C [1]: 100 % of control and 104 % of control
T/C [2]: 96 % of control and 98 % of control
T/C [3]: 97 % of control and 101 % of control
T/C [4]: 100 % of control and 101 % of control
T/C [5]: 93 % of control and 101 % of control
T/C [6]: 86 % of control and 101 % of control

F
T/C (endpoint: median survival time, dose: 16.0 mg/kg/injection, schedule: Q01DX005 (ip), vehicle: saline): 100 % of control and 104 % of control
T/C [7]: 88 % of control and 105 % of control

CC/C(=C(/CC)c1ccc(O)cc1)c1ccc(O)cc1
T/C (endpoint: median survival time, dose: 8.0 mg/kg/injection, schedule: Q01DX009 (ip), vehicle: saline): 104 % of control and 113 % of control
T/C (endpoint: median survival time, dose: 16.0 mg/kg/injection, schedule: Q01DX005 (ip), vehicle: saline with Tween-80): 93 % of control and 106 % of control
T/C (endpoint: median survival time, dose: 16.0 mg/kg/injection, schedule: Q01DX009 (ip), vehicle: saline): 104 % of control and 113 % of control
T/C (endpoint: median survival time, dose: 32.0 mg/kg/injection, schedule: Q01DX005 (ip), vehicle: saline with Tween-80): 93 % of control and 103 % of control
T/C (endpoint: median survival time, dose: 32.0 mg/kg/injection, schedule: Q01DX009 (ip), vehicle: saline): 98 % of control and 112 % of control
T/C (endpoint: median survival time, dose: 64.0 mg/kg/injection, schedule: Q01DX005 (ip), vehicle: saline with Tween-80): 103 % of control and 116 % of control
T/C (endpoint: median survival time, dose: 64.0 mg/kg/injection, schedule: Q01DX009 (ip), vehicle: saline): 105 % of control and 112 % of control
T/C (endpoint: median survival time, dose: 128.0 mg/kg/injection, schedule: Q01DX005 (ip), vehicle: saline with Tween-80): 103 % of control and 105 % of control
T/C (endpoint: median survival time, dose: 256.0 mg/kg/injection, schedule: Q01DX009 (ip), vehicle: saline): 112 % of control
T/C (endpoint: median survival time, dose: 512.0 mg/kg/injection, schedule: Q01DX009 (ip), vehicle: saline): 86 % of control

CC[n+]1c(-c2ccccc2)c2cc(N)ccc2c2ccc(N)cc21
T/C (endpoint: median survival time, dose: 12.0 mg/kg/injection, schedule: Q01DX005 (ip), vehicle: saline): 100 % of control
T/C (endpoint: median survival time, dose: 24.0 mg/kg/injection, schedule: Q01DX005 (ip), vehicle: saline): 104 % of control

COC(=O)NC1=C(N2CC2)C(=O)C(NC(=O)OC)=C(N2CC2)C1=O
T/C (endpoint: median survival time, dose: 0.37 mg/kg/injection, schedule: Q01DX009 (ip), vehicle: saline): 112 % of control and 117 % of control
T/C (endpoint: median survival time, dose: 0.75 mg/kg/injection, schedule: Q01DX009 (ip), vehicle: saline): 120 % of control and 122 % of control

C[n+]1ccc(Nc2ccc(NC(=O)c3ccc(Nc4cc[n+](C)c5ccc(N)cc45)cc3N)cc2)cc1
T/C (endpoint: mean survival time, dose: 1.0 mg/kg/injection, schedule: Q01DX009 (ip), vehicle: saline): 103 % of control
T/C (endpoint: mean survival time, dose: 2.0 mg/kg/injection, schedule: Q01DX009 (ip), vehicle: saline): 117 % of control
T/C (endpoint: mean survival time, dose: 4.0 mg/kg/injection, schedule: Q01DX009 (ip), vehicle: saline): 119 % of control
T/C (endpoint: mean survival time, dose: 8.0 mg/kg/injection, schedule: Q01DX009 (ip), vehicle: saline): 120 % of control
T/C (endpoint: mean survival time, dose: 16.0 mg/kg/injection, schedule: Q01DX009 (ip), vehicle: saline): 123 % of control

O=NN(CCCl)C(=O)NC1CCC(=O)NC1=O (configuration not stated)
T/C (endpoint: median survival time, dose: 2.0 mg/kg/injection, schedule: Q01DX001 (ip), vehicle: saline + alcohol): 112 % of control
T/C (endpoint: median survival time, dose: 8.0 mg/kg/injection, schedule: Q01DX001 (ip), vehicle: DMSO): 602 % of control
T/C (endpoint: median survival time, dose: 8.0 mg/kg/injection, schedule: Q01DX001 (ip), vehicle: saline + alcohol): 192 % of control
T/C (endpoint: median survival time, dose: 8.0 mg/kg/injection, schedule: Q01DX001 (oral), vehicle: saline + alcohol): 168 % of control
T/C (endpoint: median survival time, dose: 16.0 mg/kg/injection, schedule: Q01DX001 (ip), vehicle: DMSO): 215 % of control
T/C (endpoint: median survival time, dose: 16.0 mg/kg/injection, schedule: Q01DX001 (ip), vehicle: saline + alcohol): 224 % of control
T/C (endpoint: median survival time, dose: 16.0 mg/kg/injection, schedule: Q01DX001 (oral), vehicle: saline + alcohol): 236 % of control
T/C (endpoint: median survival time, dose: 32.0 mg/kg/injection, schedule: Q01DX001 (ip), vehicle: DMSO): 95 % of control
T/C (endpoint: median survival time, dose: 32.0 mg/kg/injection, schedule: Q01DX001 (ip), vehicle: saline + alcohol): 389 % of control
T/C (endpoint: median survival time, dose: 32.0 mg/kg/injection, schedule: Q01DX001 (oral), vehicle: saline + alcohol): 164 % of control
T/C (endpoint: median survival time, dose: 64.0 mg/kg/injection, schedule: Q01DX001 (oral), vehicle: saline + alcohol): 97 % of control

CCC(=O)O[C@H]1CC[C@H]2[C@@H]3CC[C@H]4CC(=O)[C@H](C)C[C@]4(C)[C@H]3CC[C@]12C
T/C [1]: 105 % of control and 115 % of control
T/C [2]: 105 % of control
T/C [3]: 105 % of control
T/C [4]: 122 % of control and 101 % of control
T/C [5]: 103 % of control
T/C [6]: 104 % of control
T/C (endpoint: median survival time, dose: 512.0 mg/kg/injection, schedule: Q01DX009 (ip), vehicle: saline with Tween-80): 121 % of control and 103 % of control

O=[N+]([O-])O.[Ga]
T/C [7]: 101 % of control
T/C (endpoint: median survival time, dose: 64.0 mg/kg/injection, schedule: Q01DX005 (ip), vehicle: saline): 103 % of control and 107 % of control
T/C (endpoint: median survival time, dose: 128.0 mg/kg/injection, schedule: Q01DX005 (ip), vehicle: saline): 102 % of control

CN(C)N=Nc1cccc(C(N)=O)c1
T/C (endpoint: median survival time, dose: 10.0 mg/kg/injection, schedule: Q01DX005 (ip), vehicle: Klucel (hydroxypropylcellulose) (HPC)): 104 % of control and 112 % of control
T/C (endpoint: median survival time, dose: 20.0 mg/kg/injection, schedule: Q01DX005 (ip), vehicle: Klucel (hydroxypropylcellulose) (HPC)): 120 % of control and 115 % of control
T/C (endpoint: median survival time, dose: 80.0 mg/kg/injection, schedule: Q01DX005 (ip), vehicle: Klucel (hydroxypropylcellulose) (HPC)): 102 % of control and 110 % of control
